Experimental data published in patent US7786045B2, “Aryl ether compounds and their preparation and use thereof” (Sinochem Corporation, priority 2005, dated 2010).

What was measured:
[1] = test system: rice sheath blight (Rhizoctonia solani); experiment: Whole-plant fungicidal test, protectant activity, rice sheath blight; format: in vivo
wheat powdery mildew = experiment: Whole-plant fungicidal test, curative activity, wheat powdery mildew; format: in vivo, Erysiphe graminis; settings: for inhibition at 0.39 µg/mL / inhibition at 0.78 µg/mL / inhibition at 1.56 µg/mL / inhibition at 3.125 µg/mL / inhibition at 6.25 µg/mL / inhibition at 12.5 µg/mL: Triticum aestivum, 96 h, read-out: 4 day curative activity (%) against wheat powdery mildew
[2] = test system: tomato late blight (Phytophthora infestans); format: in vivo; settings: in words
[3] = test system: cucumber downy mildew (Pseudoperonospora cubenis); experiment: Whole-plant fungicidal test, cucumber downy mildew; format: in vivo, Pseudoperonospora cubensis
[4] = test system: cucumber anthracnose (Colletotrichum lagenarium); experiment: Whole-plant fungicidal test, cucumber anthracnose; format: in vivo
[5] = test system: tomato cercospora leaf mold (Fulvia fulva); experiment: Whole-plant fungicidal test, tomato cercospora leaf mold; format: in vivo; settings: in words
[6] = test system: cucumber powdery mildew (Sphaerotheca fuliginea); experiment: Whole-plant fungicidal test, cucumber powdery mildew; format: in vivo; settings: in words
[7] = test system: apple alternaria rot (valsa mali); experiment: Whole-plant fungicidal test, apple alternaria rot; format: in vivo; settings: in words
[8] = test system: corn southern leaf blight (Helminthosporium maydis); experiment: Whole-plant fungicidal test, corn southern leaf blight; format: in vivo; settings: in words
Description: Protectant and curative activity of experimental compounds are tested with whole plants. […] For the protectant method, test solution was sprayed onto potted plant. Pathogen inoculation was carried out after 24 hours then plants were hold in growth chambers containing constant temperature and moisture for effect. When untreated plant was under desirable disease severity (after 1 week approximately), assessment were carried out by visual observation. Test plant inoculated with fungus for 4 days are sprayed with the solution of a compound and then cultured in green house for 3-4 days. The curative activity is assessed based on the control plant's index of disease.

[9] = test system: cucumber scab (Cladosporium cucumerinum); experiment: Whole-plant fungicidal test, cucumber scab; format: in vivo; settings: in words
[10] = test system: wheat head blight (Fusarium graminearum); format: in vivo; settings: in words
[11] = test system: rice blast (Pyricularia oryzae); format: in vivo; settings: in words
[12] = test system: diamond backmoth (Plutella xylostella); experiment: Insecticidal activity, diamond backmoth, spraying; settings: 200 mg/L; mortality after two days
Description: (§1) Determination of insecticidal and acaricidal activities of selected compounds were carried out by following procedure:
(§2) Technical samples were dissolved in mixed solvent (acetone:methanol=1:1), and diluted to required concentration with water containing 0.1% of tween 80.
(§3) The second instar larvae of armyworm (Leucania separata), diamond backmoth (Plutella xylostella) and culex mosquitoes (Culex pipiens pallens), green peach aphids (Myzus persicae) and mite (Tetranychus cinnabarinus) were used in biological test. The method was employed either spraying by airbrush or immersing (larvae of culex mosquitoes). A test solution (0.5 mL) was sprayed at the pressure of 10 psi (about 0.7 kg/cm^2). Percent mortality was determined after two days.

[13] = test system: rape sclerotinia stem rot (Sclerotinia sclerotiorum); experiment: Whole-plant fungicidal test, rape sclerotinia stem rot; format: in vivo; settings: in words
[14] = test system: wheat powdery mildew (BLumeria graminis); experiment: Whole-plant fungicidal test, protectant activity, wheat powdery mildew; format: in vivo; settings: for control against wheat powdery mildew: 500 mg/L
[15] = test system: cucumber grey mold (Botrytis cinerea); experiment: Whole-plant fungicidal test, cucumber grey mold; format: in vivo; settings: 500 mg/L
[16] = test system: green peach aphids (Myzus persicae); experiment: Insecticidal activity, green peach aphids, spraying; settings: 200 mg/L; mortality after two days
Description: as §1, §2, §3

Compound: COC(=O)NC(=S)Nc1ccccc1NC(=S)NC(=O)OC [triophanate-methyl, reference compound]
- 1 day protection activity (%) against rice sheath blight ([1]; 1.5625 mg/L): 0%
- 1 day protection activity (%) against rice sheath blight ([1]; 3.125 mg/L): 0%
- 1 day protection activity (%) against rice sheath blight ([1]; 6.25 mg/L): 0%
- 1 day protection activity (%) against rice sheath blight ([1]; 12.5 mg/L): 0%
- 1 day protection activity (%) against rice sheath blight ([1]; 25 mg/L): 20%
- 1 day protection activity (%) against rice sheath blight ([1]; 50 mg/L): 55%
- 1 day protection activity (%) against rice sheath blight ([1]; 100 mg/L): 75%

Compound: CC(C)(C)C(O)(CCc1ccc(Cl)cc1)Cn1cncn1 (stereo not drawn) [tebuconazole]
- inhibition at 0.39 µg/mL (wheat powdery mildew; 0.39 mg/L): 0%
- inhibition at 0.78 µg/mL (wheat powdery mildew; 0.78 mg/L): 0%
- inhibition at 1.56 µg/mL (wheat powdery mildew; 1.56 mg/L): 15%
- inhibition at 3.125 µg/mL (wheat powdery mildew; 3.125 mg/L): 45%
- inhibition at 6.25 µg/mL (wheat powdery mildew; 6.25 mg/L): 70%
- inhibition at 12.5 µg/mL (wheat powdery mildew; 12.5 mg/L): 85%

Compound: COC(=O)N(OC)c1ccccc1COc1c(C)c(-c2ccccc2)nn1C [Compound 63]
- activity against tomato late blight [2]: excellent activity
- control against cucumber downy mildew ([3]; 25 mg/L): 100%
- control against cucumber downy mildew ([3]; 500 mg/L): 100%
- activity against cucumber downy mildew ([3]; in words): excellent activity
- control against cucumber anthracnose ([4]; 1.56 mg/L): 100%
- control against cucumber anthracnose ([4]; 100 mg/L): 100%
- activity against cucumber anthracnose ([4]; in words): excellent activity
- activity against tomato cercospora leaf mold [5]: moderate activity
- activity against cucumber powdery mildew [6]: excellent activity
- activity on apple alternaria rot [7]: good activity
- 4 day curative activity (%) against wheat powdery mildew (wheat powdery mildew; 0.39 mg/L): 50%
- 4 day curative activity (%) against wheat powdery mildew (wheat powdery mildew; 0.78 mg/L): 80%
- 4 day curative activity (%) against wheat powdery mildew (wheat powdery mildew; 1.56 mg/L): 100%
- 4 day curative activity (%) against wheat powdery mildew (wheat powdery mildew; 3.125 mg/L): 100%
- 4 day curative activity (%) against wheat powdery mildew (wheat powdery mildew; 6.25 mg/L): 100%
- 4 day curative activity (%) against wheat powdery mildew (wheat powdery mildew; 12.5 mg/L): 100%
- activity against corn southern leaf blight [8]: moderate activity
- activity on cucumber scab [9]: good activity
- activity against wheat head blight [10]: moderate activity
- activity against rice blast [11]: excellent activity
- control of diamond backmoth [12]: 100%
- 1 day protection activity (%) against rice sheath blight ([1]; 1.5625 mg/L): 55%
- 1 day protection activity (%) against rice sheath blight ([1]; 3.125 mg/L): 60%
- 1 day protection activity (%) against rice sheath blight ([1]; 6.25 mg/L): 65%
- 1 day protection activity (%) against rice sheath blight ([1]; 12.5 mg/L): 75%
- 1 day protection activity (%) against rice sheath blight ([1]; 25 mg/L): 80%
- 1 day protection activity (%) against rice sheath blight ([1]; 50 mg/L): 100%
- 1 day protection activity (%) against rice sheath blight ([1]; 100 mg/L): 100%
- activity against rice sheath blight ([1]; in words): excellent activity
- activity on rape sclerotinia stem rot [13]: good activity
- 1 day protection activity (%) against wheat powdery mildew ([14]; 0.19 mg/L): 55%
- 1 day protection activity (%) against wheat powdery mildew ([14]; 0.39 mg/L): 75%
- 1 day protection activity (%) against wheat powdery mildew ([14]; 0.78 mg/L): 95%
- 1 day protection activity (%) against wheat powdery mildew ([14]; 1.56 mg/L): 100%
- 1 day protection activity (%) against wheat powdery mildew ([14]; 3.125 mg/L): 100%
- 1 day protection activity (%) against wheat powdery mildew ([14]; 6.25 mg/L): 100%
- 1 day protection activity (%) against wheat powdery mildew ([14]; 12.5 mg/L): 100%
- 1 day protection activity (%) against wheat powdery mildew ([14]; 25 mg/L): 100%
- control against wheat powdery mildew [14]: 100%
- activity against wheat powdery mildew ([14]; in words): excellent activity

Compound: CNC(=O)C(=NOC)c1ccccc1COc1cc(-c2cccs2)nn1C [Compound 415]
- control against cucumber downy mildew ([3]; 500 mg/L): 100%

Compound: COC(=O)N(OC)c1ccccc1COc1cc(-c2ccc(Cl)cc2)nn1C(C)C [Compound 11]
- control against cucumber downy mildew ([3]; 500 mg/L): 90%

Compound: COC(=O)N(OC)c1ccccc1COc1cc(-c2ccc(Cl)nc2)nn1C [Compound 21]
- control against cucumber grey mold [15]: 100%
- control against wheat powdery mildew [14]: 100%

Compound: COC=C(C(=O)OC)c1ccccc1-c1cc(Oc2cc(-c3ccc(Cl)cc3)nn2C(C)C)ncn1 [Compound 194]
- control against cucumber downy mildew ([3]; 500 mg/L): 100%

Compound: COC=C(C(=O)OC)c1ccccc1COc1cc(-c2cccs2)nn1C [Compound 367]
- control against cucumber downy mildew ([3]; 500 mg/L): 100%

Compound: COC(=O)N(OC)c1ccccc1COc1cc(-c2ccccc2)nn1C [Compound 1]
- control against cucumber downy mildew ([3]; 500 mg/L): 100%

Compound: COC(=O)N(OC)c1ccccc1COc1cc(-c2ccc(Br)cc2)nn1C [Compound 15]
- control against cucumber downy mildew ([3]; 25 mg/L): 100%
- control against cucumber downy mildew ([3]; 500 mg/L): 100%
- control of green peach aphids [16]: 90%

Compound: COC(=O)N(OC)c1ccccc1COc1cc(-c2ccc(SC)cc2)nn1C [Compound 8]
- control against cucumber downy mildew ([3]; 500 mg/L): 100%

Compound: CO/N=C(/C(=O)OC)c1ccccc1COc1ccccc1C [Kresoxim methyl, reference compound]
- inhibition at 0.39 µg/mL (wheat powdery mildew; 0.39 mg/L): 0%
- inhibition at 0.78 µg/mL (wheat powdery mildew; 0.78 mg/L): 0%
- inhibition at 1.56 µg/mL (wheat powdery mildew; 1.56 mg/L): 10%
- inhibition at 3.125 µg/mL (wheat powdery mildew; 3.125 mg/L): 15%
- inhibition at 6.25 µg/mL (wheat powdery mildew; 6.25 mg/L): 20%
- inhibition at 12.5 µg/mL (wheat powdery mildew; 12.5 mg/L): 100%
- inhibition at 0.39 µg/mL ([14]; Blumeria graminis, 24 h, 0.39 mg/L, read-out: 1 day protection activity (%) against wheat powdery mildew): 0%
- inhibition at 0.78 µg/mL ([14]; Blumeria graminis, 24 h, 0.78 mg/L, read-out: 1 day protection activity (%) against wheat powdery mildew): 15%
- inhibition at 1.56 µg/mL ([14]; Blumeria graminis, 24 h, 1.56 mg/L, read-out: 1 day protection activity (%) against wheat powdery mildew): 40%
- inhibition at 3.125 µg/mL ([14]; Blumeria graminis, 24 h, 3.125 mg/L, read-out: 1 day protection activity (%) against wheat powdery mildew): 70%
- inhibition at 6.25 µg/mL ([14]; Blumeria graminis, 24 h, 6.25 mg/L, read-out: 1 day protection activity (%) against wheat powdery mildew): 98%
- inhibition at 12.5 µg/mL ([14]; Blumeria graminis, 24 h, 12.5 mg/L, read-out: 1 day protection activity (%) against wheat powdery mildew): 100%
- inhibition at 25 µg/mL ([14]; Blumeria graminis, 24 h, 25 mg/L, read-out: 1 day protection activity (%) against wheat powdery mildew): 100%

Compound: CON=C(C(=O)OC)c1ccccc1COc1cc(-c2cccs2)nn1C [Compound 391]
- control against cucumber downy mildew ([3]; 500 mg/L): 90%

Compound: COC(=O)N(OC)c1ccccc1COc1cc(-c2ccc(C)cc2)nn1C [Compound 16]
- control against wheat powdery mildew [14]: 100%

Compound: COC(=O)N(OC)c1ccccc1COc1cc(-c2ccccc2Cl)nn1C [Compound 20]
- control against cucumber downy mildew ([3]; 25 mg/L): 100%
- control against cucumber downy mildew ([3]; 500 mg/L): 100%
- control against wheat powdery mildew [14]: 100%

Compound: COC(=O)N(OC)c1ccccc1COc1c(C)c(-c2ccc(C)cc2)nn1C [Compound 78]
- control against cucumber downy mildew ([3]; 25 mg/L): 100%
- control against cucumber downy mildew ([3]; 500 mg/L): 100%
- control against wheat powdery mildew [14]: 100%

Compound: COC(=O)N(OC)c1ccccc1COc1cc(-c2ccc(Cl)cc2Cl)nn1C [Compound 10]
- control against cucumber downy mildew ([3]; 500 mg/L): 100%
- control against wheat powdery mildew [14]: 100%

Compound: COC(=O)N(OC)c1ccccc1COc1ccn(-c2ccc(Cl)cc2)n1 [pyraclostrobin]
- inhibition at 0.39 µg/mL (wheat powdery mildew; 0.39 mg/L): 0%
- inhibition at 0.78 µg/mL (wheat powdery mildew; 0.78 mg/L): 25%
- inhibition at 1.56 µg/mL (wheat powdery mildew; 1.56 mg/L): 60%
- inhibition at 3.125 µg/mL (wheat powdery mildew; 3.125 mg/L): 85%
- inhibition at 6.25 µg/mL (wheat powdery mildew; 6.25 mg/L): 100%
- inhibition at 12.5 µg/mL (wheat powdery mildew; 12.5 mg/L): 100%
